Measured values as given in ChEMBL document CHEMBL1122011, “Synthesis of N-(carbonylamino)-1,2,3,6-tetrahydropyridines with analgesic, antiinflammatory, and hyperglycemic activity” (J Med Chem, 1982).

Experiments:
Mus musculus [1] = organism: Mus musculus; experiment: animal or person; settings: sc, read-out: Inhibition
Description: Analgesic activity in mice using phenylquinone writhing test at 0.038 mg/kg, sc dose

Mus musculus [2] = experiment: Analgesic activity in mice using phenylquinone writhing test at 30 mg/kg, sc dose; assay type: functional; settings: route subcutaneous
Rattus norvegicus [3] = experiment: % change in blood glucose concentration after 2 hr post treatment at 100 mg/kg, po; assay type: functional; parameters: unit: %
Rattus norvegicus [4] = experiment: % change in blood glucose concentration after 4 hr post treatment at 100 mg/kg, po; assay type: functional; parameters: unit: %
Rattus norvegicus [5] = experiment: % change in blood glucose concentration after 4 hr post treatment at 30 mg/kg, po; assay type: functional
Mus musculus [6] = experiment: Analgesic activity in mice using phenylquinone writhing test at 10 mg/kg, sc dose; assay type: functional; settings: route subcutaneous
Mus musculus [7] = experiment: Analgesic activity in mice using phenylquinone writhing test at 0.0075 mg/kg, sc dose; assay type: functional; settings: route subcutaneous
Rattus norvegicus [8] = experiment: % change in blood glucose concentration after 2 hr post treatment at 17 mg/kg, po; assay type: functional
Mus musculus [9] = experiment: Analgesic activity in mice using phenylquinone writhing test at 10 mg/kg, sc dose. 2 mg/kg Noxolone was prior to compound injection; assay type: functional
Mus musculus [10] = experiment: Analgesic activity in mice using phenylquinone writhing test at 3mg/kg, sc dose; assay type: functional
Mus musculus [11] = experiment: Effective dose in mouse hotplate test at 55+/-0.5 degree Centigrade after 30 min of dosing; assay type: functional; settings: 0.5 h
Mus musculus [12] = experiment: Analgesic activity in mice using phenylquinone writhing test at 3 mg/kg, sc dose. 0.6 mg/kg Noxolone was prior to compound injection; assay type: functional
Mus musculus [13] = experiment: Analgesic activity in mice using phenylquinone writhing test at 60 mg/kg, sc dose; assay type: functional; settings: route subcutaneous
Rattus norvegicus [14] = experiment: Inhibitory against carrageenan induced paw edema in rat at 120 mg/kg, sc dose after 5 hr; assay type: functional; settings: route subcutaneous
Rattus norvegicus [15] = experiment: Inhibitory against carrageenan induced paw edema in rat at 120 mg/kg, sc dose after 3h; assay type: functional; settings: route subcutaneous
Mus musculus [16] = experiment: Analgesic activity in mice using phenylquinone writhing test at 120 mg/kg, sc dose; assay type: functional; settings: route subcutaneous
Mus musculus [17] = experiment: Analgesic activity in mice using phenylquinone writhing test at 25 mg/kg, sc dose; assay type: functional; settings: route subcutaneous
Rattus norvegicus [18] = experiment: % change in blood glucose concentration after 4 hr post treatment at 53 mg/kg, po; assay type: functional
Rattus norvegicus [19] = experiment: % change in blood glucose concentration after 2 hr post treatment at 41 mg/kg, po; assay type: functional
Rattus norvegicus [20] = experiment: % change in blood glucose concentration after 2 hr post treatment at 36.5 mg/kg, po; assay type: functional
Mus musculus [21] = experiment: Analgesic activity in mice using phenylquinone writhing test at 16.5 mg/kg, sc dose; assay type: functional; settings: route subcutaneous

| SMILES | inhibition in vivo at 30 mg/kg (Mus musculus [2]) | Hyperglycemic activity (Rattus norvegicus [3]) | Hyperglycemic activity (Rattus norvegicus [4]) | inhibition in vivo at 120 mg/kg (Rattus norvegicus [14]) | inhibition in vivo at 120 mg/kg (Rattus norvegicus [15]) | other results |
| --- | --- | --- | --- | --- | --- | --- |
| CN1CC[C@]23c4c5ccc(O)c4O[C@H]2[C@@H](O)C=C[C@H]3[C@H]1C5 | – | – | – | – | – | inhibition in vivo at 0.038 mg/kg (Mus musculus [1]): 50% |
| O=C(NN1CC=CCC1)C1CC1 | 100% | 66 | 111 | – | – | – |
| O=C(NN1CC=CCC1)c1cccs1 | 77% | 116 | 64 | – | – | – |
| O=C(NN1CC=CCC1)c1ccco1 | 99% | 181 | 182 | – | – | Hyperglycemic activity (Rattus norvegicus [5]): 50; inhibition in vivo at 10 mg/kg (Mus musculus [6]): 98.4%; inhibition in vivo at 0.0075 mg/kg (Mus musculus [7]): 50%; Hyperglycemic activity (Rattus norvegicus [8]): 50; Inhibition (Mus musculus [9]): 99.2% |
| CCOC(=O)NN1CC=CCC1 | 99% | 27 | 91 | – | – | inhibition in vivo at 3 mg/kg (Mus musculus [10]): 85.6%; ED50 (Mus musculus [11]): 19.5 mg/kg; Inhibition (Mus musculus [12]): 86% |
| O=C(Cc1ccc2c(c1)OCO2)NN1CC=CCC1 | – | 7 | 21 | 0% | 0% | inhibition in vivo at 60 mg/kg (Mus musculus [13]): 80% |
| O=C(CCc1ccccc1)NN1CC=CCC1 | – | 27 | 25 | 83% | 83% | inhibition in vivo at 120 mg/kg (Mus musculus [16]): 42% |
| O=C(COc1cccc2ccccc12)NN1CC=CCC1 | 76% | 9 | 14 | – | – | – |
| O=C(COc1ccccc1)NN1CC=CCC1 | – | – | – | 80% | 83% | inhibition in vivo at 25 mg/kg (Mus musculus [17]): 50%; Hyperglycemic activity (Rattus norvegicus [18]): 50; Hyperglycemic activity (Rattus norvegicus [19]): 50 |
| O=C(NN1CC=CCC1)C1CCCCC1 | – | – | – | 84% | 50% | Hyperglycemic activity (Rattus norvegicus [20]): 50; Hyperglycemic activity (Rattus norvegicus [18]): 50; inhibition in vivo at 16.5 mg/kg (Mus musculus [21]): 50% |
| CC(=O)NN1CC=CCC1 | 99% | 35 | 36 | – | – | – |
